Measurements: patent US9982005B2, “Macrolides and methods of their preparation and use” (President and Fellows of Harvard College, priority 2013, dated 2018)
≈ marks a conversion by molar mass, not a printed value. Where two headings read alike, the source gives them in different places.

Columns and labels:
Assay type in all cases: cell-based
EC878 E. coli tolC = test: broth dilution MIC, E. coli EC878
Source text: (§1) We have collected MIC data for a total of 50 novel macrolides that this platform has produced against over 21 unique strains of B. subtilis, E. coli, S. aureus, S. pneumoniae, and H. influenzae, including several multidrug-resistant strains, with a special focus on macrolide resistant mechanisms (vide supra). Azithromycin was included as a control macrolide. CLSI standard procedures for broth dilution MIC determination were used. […] These genotypes can be constitutive or inducible. The finding that C4-epi (unnatural) isomers of the “azaketolide” macrolide class have enhanced activities relative to C4 natural isomers is very exciting.

BS1725 B. subtilis ermC = test: broth dilution MIC, B. subtilis BS1725
Source text: as §1

[1] = system: BS1723 B. subtilis BS168 WT wild type; test: broth dilution MIC, B. subtilis BS1723; settings: BS1723 B. subtilis BS168 WT wild type
Source text: as §1

EC882 E. coli imp = test: broth dilution MIC, E. coli EC882
Source text: as §1

[2] = system: SA101 S. aureus ATCC29213; test: broth dilution MIC, S. aureus SA101
Source text: as §1

EC107 E. coli ATCC25922 = test: broth dilution MIC, E. coli EC107
Source text: as §1

E. coli strains = test: MIC against E. coli strains (Table M7); settings: Escherichia coli, ATCC25922, E. coli ATCC 25922
Source text: as §1

E. faecalis strains = test: MIC against E. faecalis strains (Table M8); settings: for MIC: Enterococcus faecalis, E. faecalis 29212
A. baumannii strains = test: MIC against A. baumannii strains (Table M8); settings: Acinetobacter baumannii, BAA747, A. baumannii BAA747-1
S. aureus strains = test: MIC against S. aureus strains (Table M7); settings: Staphylococcus aureus
Source text: as §1

H. influenzae strains = test: MIC against H. influenzae strains (Table M8); settings: for MIC: Haemophilus influenzae
Source text: as §1

K. pneumoniae strains = test: MIC against K. pneumoniae strains (Table M8); settings: for MIC: Klebsiella pneumoniae, K. pneumoniae 10031
S. pneumoniae strains = test: MIC against S. pneumoniae strains (Tables M7, M8); settings: for MIC: Streptococcus pneumoniae
Source text: CLSI standard procedures for broth dilution MIC determination were used. […] These genotypes can be constitutive or inducible.

[3] = ATCC29213, S. aureus ATCC 29213, read-out: MIC S. aureus (ATCC 29213)
[4] = S. aureus 183, read-out: MIC S. aureus (183)
[5] = S. aureus 506, read-out: MIC S. aureus (506)
[6] = S. aureus 1708, read-out: MIC S. aureus (1708)
[7] = USA300, S. aureus USA300, read-out: MIC S. aureus (USA300)
[8] = H. influenzae 49247, read-out: MIC H. influenzae (49247)
[9] = H. influenzae 49766, read-out: MIC H. influenzae (49766)
[10] = S. pneumoniae 160, read-out: MIC S. pneumonae (160)
[11] = S. pneumoniae 1509, read-out: MIC S. pneumoniae (1509)
[12] = S. pneumoniae 1533, read-out: MIC S. pneumoniae (1533)
[13] = S. pneumoniae 1537, read-out: MIC S. pneumoniae (1537)
[14] = S. pneumoniae 49619, read-out: MIC S. pneumoniae (49619)

Molecule	MIC (E. coli strains)	MIC (E. faecalis strains)	MIC (A. baumannii strains)	MIC (S. aureus strains; [3])	MIC (S. aureus strains; [4])	MIC (S. aureus strains; [5])	MIC (S. aureus strains; [6])	MIC (S. aureus strains; [7])	MIC (H. influenzae strains; [8])	MIC (H. influenzae strains; [9])	MIC (K. pneumoniae strains)	MIC (S. pneumoniae strains; [10])	MIC (S. pneumoniae strains; [11])	MIC (S. pneumoniae strains; [12])	MIC (S. pneumoniae strains; [13])	MIC (S. pneumoniae strains; [14])	MIC S. pneumoniae (49619) (S. pneumoniae strains; S. pneumoniae 49619)	also measured
spiramycin [reference compound]	–	–	–	–	–	–	–	–	–	–	–	–	–	–	–	–	–	MIC (EC878 E. coli tolC): 16 µg/mL; MIC (BS1725 B. subtilis ermC; BS1725 B. subtilis ermC (+ery)): 16 µg/mL; MIC (BS1725 B. subtilis ermC; BS1725 B. subtilis ermC (−ery)): 2 µg/mL; MIC [1]: 2 µg/mL; MIC (EC882 E. coli imp): 1 µg/mL; MIC ([2]; SA101 S. aureus ATCC29213): 8 µg/mL; MIC (EC107 E. coli ATCC25922): >32 µg/mL
CC[C@H]1OC(=O)[C@H](C)C(=O)C[C@@H](O[C@@H]2OC(C)CC(N(C)C)C2O)[C@@](C)(OC)C[C@@H](C)CN(C(C)=O)[C@H](C)[C@H]2N(CCCCn3cc(-c4cccnn4)nn3)C(=O)O[C@]12C (some centres unmarked) [FSM-30513]	–	–	–	–	–	–	–	–	–	–	–	–	–	–	–	–	–	MIC (EC878 E. coli tolC; Escherichia coli): > 32 µg/mL; MIC (BS1725 B. subtilis ermC; Bacillus subtilis, BS1725 B. subtilis ermC (+ery)): > 32 µg/mL; MIC (BS1725 B. subtilis ermC; Bacillus subtilis, BS1725 B. subtilis ermC (−ery)): > 32 µg/mL; MIC ([1]; Bacillus subtilis, read-out: MIC): > 32 µg/mL; MIC (EC882 E. coli imp; Escherichia coli): > 32 µg/mL; MIC ([2]; Staphylococcus aureus, ATCC29213, SA101 S. aureus ATCC29213, read-out: MIC): > 32 µg/mL; MIC (EC107 E. coli ATCC25922; Escherichia coli, read-out: MIC): > 32 µg/mL
CC[C@H]1OC(=O)[C@H](C)C(=O)[C@H](C)[C@@H](O[C@@H]2OC(C)CC(N(C)C)C2O)[C@](C)(OC)C[C@@H](C)CNC[C@H]2N(CCCCn3cc(-c4cccc(N)c4)nn3)C(=O)O[C@]12C (some centres unmarked) [FSM-11031]	16 µg/mL (≈ 19.7 µM)	0.25 µg/mL (≈ 0.307 µM)	16 µg/mL (≈ 19.7 µM)	2 µg/mL (≈ 2.46 µM)	> 32 µg/mL	> 32 µg/mL	1 µg/mL (≈ 1.23 µM)	4 µg/mL (≈ 4.91 µM)	2 µg/mL (≈ 2.46 µM)	4 µg/mL (≈ 4.91 µM)	4 µg/mL (≈ 4.91 µM)	0.25 µg/mL (≈ 0.307 µM)	1 µg/mL (≈ 1.23 µM)	> 32 µg/mL	> 32 µg/mL	0.25 µg/mL (≈ 0.307 µM)	–	–
C=CC[C@@]1(OC)C[C@@H](C)CN[C@H](C)[C@H]2N(CCCCn3cc(-c4cccc(N)c4)nn3)C(=O)O[C@]2(C)[C@@H](CC)OC(=O)[C@H](C)C(=O)[C@@H](C)[C@H]1O[C@@H]1OC(C)CC(N(C)C)C1O (some centres unmarked) [FSM-21367]	4 µg/mL (≈ 4.68 µM)	2 µg/mL (≈ 2.34 µM)	16 µg/mL (≈ 18.7 µM)	8 µg/mL (≈ 9.37 µM)	> 32 µg/mL	> 32 µg/mL	16 µg/mL (≈ 18.7 µM)	8 µg/mL (≈ 9.37 µM)	1 µg/mL (≈ 1.17 µM)	4 µg/mL (≈ 4.68 µM)	4 µg/mL (≈ 4.68 µM)	0.125 µg/mL (≈ 0.146 µM)	8 µg/mL (≈ 9.37 µM)	> 32 µg/mL	> 32 µg/mL	–	0.25 µg/mL (≈ 0.293 µM)	–
CC[C@H]1OC(=O)[C@H](C)C(=O)[C@H](C)[C@@H](O[C@@H]2OC(C)CC(N(C)C)C2O)[C@](C)(OC)CC(C)N[C@H](C)[C@H]2N(CCCCn3cc(-c4cccc(N)c4)nn3)C(=O)O[C@]12C (single isomer, unassigned) [FSM-30689]	> 32 µg/mL	32 µg/mL (≈ 39.3 µM)	> 32 µg/mL	> 32 µg/mL	> 32 µg/mL	> 32 µg/mL	> 32 µg/mL	> 32 µg/mL	16 µg/mL (≈ 19.7 µM)	> 32 µg/mL	> 32 µg/mL	16 µg/mL (≈ 19.7 µM)	16 µg/mL (≈ 19.7 µM)	> 32 µg/mL	> 32 µg/mL	–	8 µg/mL (≈ 9.83 µM)	–
CN(C)c1ccc(O)c2c1C[C@H]1C[C@H]3[C@H](N(C)C)C(O)=C(C(N)=O)C(=O)[C@@]3(O)C(O)=C1C2=O [Minocycline, minocycline, reference compound]	1 µg/mL (≈ 2.19 µM)	8 µg/mL (≈ 17.5 µM)	0.5 µg/mL (≈ 1.09 µM)	0.25 µg/mL (≈ 0.546 µM)	16 µg/mL (≈ 35 µM)	2 µg/mL (≈ 4.37 µM)	0.5 µg/mL (≈ 1.09 µM)	0.25 µg/mL (≈ 0.546 µM)	4 µg/mL (≈ 8.74 µM)	8 µg/mL (≈ 17.5 µM)	0.5 µg/mL (≈ 1.09 µM)	8 µg/mL (≈ 17.5 µM)	16 µg/mL (≈ 35 µM)	8 µg/mL (≈ 17.5 µM)	8 µg/mL (≈ 17.5 µM)	0.25 µg/mL (≈ 0.546 µM)	–	–
CC[C@H]1OC(=O)C(C)C(=O)[C@H](C)[C@@H](O[C@@H]2OC(C)CC(N(C)C)C2O)[C@](C)(OC/C=C/c2cnc3ccccc3c2)C[C@@H](C)CN(C)[C@H](C)[C@H]2NC(=O)O[C@@]21C (some centres unmarked) [FSM-21118]	8 µg/mL (≈ 10.2 µM)	0.5 µg/mL (≈ 0.64 µM)	32 µg/mL (≈ 41 µM)	1 µg/mL (≈ 1.28 µM)	> 32 µg/mL	> 32 µg/mL	1 µg/mL (≈ 1.28 µM)	2 µg/mL (≈ 2.56 µM)	2 µg/mL (≈ 2.56 µM)	8 µg/mL (≈ 10.2 µM)	2 µg/mL (≈ 2.56 µM)	≤ 0.0625 µg/mL	1 µg/mL (≈ 1.28 µM)	> 32 µg/mL	32 µg/mL (≈ 41 µM)	0.125 µg/mL (≈ 0.16 µM)	–	–
C=CC[C@@]1(OC)C[C@@H](C)CN[C@H](C)[C@H]2N(CCCCn3cc(-c4ccccn4)nn3)C(=O)O[C@]2(C)[C@@H](CC)OC(=O)[C@H](C)C(=O)[C@H](C)[C@H]1O[C@@H]1OC(C)CC(N(C)C)C1O (some centres unmarked) [FSM-21423]	32 µg/mL (≈ 38.1 µM)	–	> 32 µg/mL	16 µg/mL (≈ 19 µM)	> 32 µg/mL	> 32 µg/mL	32 µg/mL (≈ 38.1 µM)	16 µg/mL (≈ 19 µM)	–	16 µg/mL (≈ 19 µM)	–	–	> 32 µg/mL	> 32 µg/mL	> 32 µg/mL	–	1 µg/mL (≈ 1.19 µM)	MIC E. faecalis (29212) (E. faecalis strains): 4 µg/mL (≈ 4.76 µM); MIC H. influenzae (49247) (H. influenzae strains; H. influenzae 49247): 2 µg/mL (≈ 2.38 µM); MIC K. pneumoniae (10031) (K. pneumoniae strains): 8 µg/mL (≈ 9.52 µM); MIC S. pneumonae (160) (S. pneumoniae strains; S. pneumoniae 160): 0.25 µg/mL (≈ 0.298 µM)
